Assay [1] addresses T1, Human LPA1 (Homo sapiens, UniProt Q92633).
T1 construct: the full-length cDNA for human LPA1 was obtained by PCR of the reverse transcription reaction; expressed in transfected cells
Put plainly: LPA1 calcium flux assay. The assay is classed as cell-based. To be noted: CHO cells expressing human LPA1, 10 nM LPA; read-out: HLPA1 Ca Flux IC50. The method, then: A 1.1 kb cDNA encoding the human LPA1 receptor was cloned from human lung. Human lung RNA (Clontech Laboratories, Inc. USA) was reverse transcribed using the RETROscript kit (Ambion, Inc.) and the full-length cDNA for human LPA1 was obtained by PCR of the reverse transcription reaction. The nucleotide sequence of the cloned human LPA1 was determined by sequencing and confirmed to be identical to the published human LPA1 sequence (An et al. Biochem. Biophys. Res. Commun. 231:619 (1997). The cDNA was cloned into the pcDNA5/FRT expression plasmid and transfected in CHO cells using lipofectamine 2000 (Invitrogen Corp., USA). Clones stably expressing human LPA1 were selected using hygromycin and identified as cells that show Ca-influx in response to LPA.
(§1) Human LPA1 or LPA3 expressing CHO cells are seeded at 20,000-45,000 cells per well in a 96-well poly-D-lysine coated plate one or two days before the assay. Prior to the assay, the cells are washed once with PBS and then cultured in serum-free media overnight. On the day of the assay, a calcium indicator dye (Calcium 4, Molecular Devices) in assay buffer (HBSS with Ca^2+and Mg^2+ and containing 20 mM Hepes and 0.3% fatty-acid free human serum albumin) is added to each well and incubation continued for 1 hour at 37° C. 10 μl of test compounds in 2.5% DMSO are added to the cells and incubation continued at room temperature for 30 minutes. Cells are the stimulated by the addition of 10 nM LPA and intracellular Ca^2+ measured using the Flexstation 3 (Molecular Devices). IC50s are determined using Graphpad prism analysis of drug titration curves.
In general terms: Calcium assays in cells follow changes in intracellular calcium, usually with a dye or a luminescent sensor.

Assay [2] has as its target T2, Human LPA3 (Homo sapiens, UniProt Q9UBY5).
T2 construct: The full-length cDNA fragment for human LPA3 was obtained by PCR from the vector; expressed in transfected cells; cDNA from the Missouri S&T cDNA Resource Center
T2 sequence (Q9UBY5 1-353): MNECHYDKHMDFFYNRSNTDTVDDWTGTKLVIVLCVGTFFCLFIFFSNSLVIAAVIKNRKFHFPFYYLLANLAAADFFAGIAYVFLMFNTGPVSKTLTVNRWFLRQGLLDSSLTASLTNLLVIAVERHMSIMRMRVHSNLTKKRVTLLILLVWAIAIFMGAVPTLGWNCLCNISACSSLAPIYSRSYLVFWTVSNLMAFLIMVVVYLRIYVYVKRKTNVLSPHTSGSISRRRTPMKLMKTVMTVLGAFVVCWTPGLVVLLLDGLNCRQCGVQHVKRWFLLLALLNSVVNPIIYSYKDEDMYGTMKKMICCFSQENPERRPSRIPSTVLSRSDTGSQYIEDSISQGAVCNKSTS
The assay is described as follows: LPA3 calcium flux assay. The assay is classed as cell-based. To be noted: CHO cells expressing human LPA3, 10 nM LPA; read-out: HLPA3 Ca Flux IC50. Here is the method: A vector containing the human LPA3 receptor cDNA was obtained from the Missouri S&T cDNA Resource Center (www.cdna.org). The full-length cDNA fragment for human LPA3 was obtained by PCR from the vector. The nucleotide sequence of the cloned human LPA3 was determined by sequencing and confirmed to be identical to the published human LPA3 sequence (NCBI accession number NM_012152). The cDNA was cloned into the pcDNA5/FRT expression plasmid and transfected in CHO cells using lipofectamine 2000 (Invitrogen Corp., USA). Clones stably expressing human LPA3 were selected using hygromycin and identified as cells that show Ca-influx in response to LPA.
as §1

Each structure is given as a SMILES string.

T1 sequence (Q92633 whole entry): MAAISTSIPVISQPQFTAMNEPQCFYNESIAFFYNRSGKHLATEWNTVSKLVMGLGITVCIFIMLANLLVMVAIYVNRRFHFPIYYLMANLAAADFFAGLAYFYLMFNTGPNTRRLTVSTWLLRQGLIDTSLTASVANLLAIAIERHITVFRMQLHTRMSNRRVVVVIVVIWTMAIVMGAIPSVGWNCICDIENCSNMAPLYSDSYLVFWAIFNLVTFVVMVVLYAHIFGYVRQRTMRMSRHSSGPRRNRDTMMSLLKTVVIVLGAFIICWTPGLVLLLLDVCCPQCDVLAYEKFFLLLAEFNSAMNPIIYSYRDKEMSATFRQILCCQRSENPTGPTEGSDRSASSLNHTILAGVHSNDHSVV

In general, IC50 refers to the concentration needed to halve the response being measured. As for `Cc1noc(-c2ccc(-c3ccc(C4(C(=O)O)CC4)cc3)cc2)c1NC(=O)O[C@H](C)C1CCC1` [Compound 20, 1-{4′-[4-((R)-1-Cyclobutyl-ethoxycarbonylamino)-3-methyl-isoxazol-5-yl]-biphenyl-4-yl}-cyclopropanecarboxylic acid], the IC50 in assay [1] was less than 0.3 µM; in assay [2], 1 to 10 µM.
Turning to `Cc1noc(-c2ccc(-c3ccc(C4(C(=O)O)CCCC4)cc3)cc2)c1NC(=O)O[C@H](C)c1ccccc1` [Compound 11, 1-{4′-[3-Methyl-4-((R)-1-phenyl-ethoxycarbonylamino)-isoxazol-5-yl]-biphenyl-4-yl}-cyclopentanecarboxylic acid], the values for the IC50 in assay [1] and in assay [2] were less than 0.3 µM and 1 to 10 µM, respectively.
On to `COc1cc(-c2ccc(C3(C(=O)NS(C)(=O)=O)CC3)cc2)ccc1-c1onc(C)c1NC(=O)O[C@H](C)c1cccc(C(F)(F)F)c1` [Compound 41, {5-[4′-(1-Methanesulfonylaminocarbonyl-cyclopropyl)-3-methoxy-biphenyl-4-yl]-3-methyl-isoxazol-4-yl}-carbamic acid (R)-1-(3-trifluoromethyl-phenyl)-ethyl ester], for which the IC50 in assay [1] was less than 0.3 µM; in assay [2] it was 0.3 to 1 µM.
As for `Cc1noc(-c2ccc(-c3ccc(C4(C#N)CC4)cc3)cc2)c1NC(=O)O[C@H](C)c1ccccc1` [Compound 37, {5-[4′-(1-Cyano-cyclopropyl)-biphenyl-4-yl]-3-methyl-isoxazol-4-yl}-carbamic acid (R)-1-phenyl-ethyl ester], the 50% inhibitory concentration (IC50) in assay [1] was 1 to 10 µM; in assay [2], greater than 10 µM.
As to `Cc1noc(-c2ccc(-c3ccc(C4(C(=O)O)CC4)cc3)cc2)c1NC(=O)OC(C)C1CCCCC1` (stereo not drawn) [Compound 2, 1-{4′-[4-(1-Cyclohexyl-ethoxycarbonylamino)-3-methyl-isoxazol-5-yl]-biphenyl-4-yl}-cyclopropanecarboxylic acid], the IC50 was less than 0.3 µM in assay [1] and 1 to 10 µM in assay [2].
As for `COc1cccc([C@@H](C)OC(=O)Nc2c(C)noc2-c2ccc(-c3ccc(C4(C(=O)O)CC4)cc3)cc2)c1` [Compound 23, 1-(4′-{4-[(R)-1-(3-Methoxy-phenyl)-ethoxycarbonylamino]-3-methyl-isoxazol-5-yl}-biphenyl-4-yl)-cyclopropanecarboxylic acid], the IC50 in assay [1] was less than 0.3 µM; in assay [2], 1 to 10 µM.
For the compound `Cc1noc(-c2ccc(-c3ccc(C4(C(=O)O)CC4)cc3)cc2)c1NC(=O)O[C@H](C)C1CC1` (single isomer, unassigned) [Compound 6], the IC50 was less than 0.3 µM in assay [1] and greater than 10 µM in assay [2].
As for `Cc1noc(-c2ccc(-c3ccc(C4(C(=O)O)CC4)cc3)cc2)c1NC(=O)OCC1CC1` [Compound 7, 1-[4′-(4-Cyclopropylmethoxycarbonylamino-3-methyl-isoxazol-5-yl)-biphenyl-4-yl]-cyclopropanecarboxylic acid], the IC50 in assay [1] is less than 0.3 µM; in assay [2] it was greater than 10 µM.
As to `COc1cc(-c2ccc(C3(C(=O)O)CC3)cc2)ccc1-c1onc(C)c1NC(=O)O[C@H](C)c1cccc(C(F)(F)F)c1` [Compound 31, 1-(3′-Methoxy-4′-{3-methyl-4-[(R)-1-(3-trifluoromethyl-phenyl)-ethoxycarbonylamino]-isoxazol-5-yl}-biphenyl-4-yl)-cyclopropanecarboxylic acid], the IC50 in assay [1] and in assay [2] was less than 0.3 µM throughout.
Take `Cc1noc(-c2ccc(-c3ccc(C4(C(=O)NS(C)(=O)=O)CC4)cc3)cc2)c1NC(=O)O[C@H](C)c1cccc(C(F)(F)F)c1` [Compound 40, {5-[4′-(1-Methanesulfonylaminocarbonyl-cyclopropyl)-biphenyl-4-yl]-3-methyl-isoxazol-4-yl}-carbamic acid (R)-1-(3-trifluoromethyl-phenyl)-ethyl ester]: the figures for the IC50 in assay [1] and in assay [2] were less than 0.3 µM and 0.3 to 1 µM, respectively.
On to `Cc1noc(-c2ccc(-c3ccc(C4(C(=O)O)CC4)cc3)cc2)c1NC(=O)OC(C)c1cccc(C#N)c1` (stereo not drawn) [Compound 15, 1-(4′-{4-[1-(3-Cyano-phenyl)-ethoxycarbonylamino]-3-methyl-isoxazol-5-yl}-biphenyl-4-yl)-cyclopropanecarboxylic acid], for which the IC50 is less than 0.3 µM in assay [1] and 1 to 10 µM in assay [2].
The like results for `Cc1noc(-c2ccc(-c3ccc(C4(C(=O)O)CC4)cc3)cc2)c1NC(=O)OC(C)c1ccccc1` (racemic) [Compound 34, 1-{4′-[3-Methyl-4-(1-phenyl-ethoxycarbonylamino)-isoxazol-5-yl]-biphenyl-4-yl}-cyclopropanecarboxylic acid] were, in that order, less than 0.3 µM and 1 to 10 µM.
With `Cc1noc(-c2ccc(-c3ccc(C4(C(=O)O)CC4)cc3)cc2)c1NC(=O)OC(C)c1cccc(Br)c1` (stereo not drawn) [Compound 25, 1-(4′-{4-[1-(3-Bromo-phenyl)-ethoxycarbonylamino]-3-methyl-isoxazol-5-yl}-biphenyl-4-yl)-cyclopropanecarboxylic acid], the IC50 is less than 0.3 µM in assay [1] and 0.3 to 1 µM in assay [2].
The like results for `COc1ccc([C@@H](C)OC(=O)Nc2c(C)noc2-c2ccc(-c3ccc(C4(C(=O)O)CC4)cc3)cc2)cc1` [Compound 24, 1-(4′-{4-[(R)-1-(4-Methoxy-phenyl)-ethoxycarbonylamino]-3-methyl-isoxazol-5-yl}-biphenyl-4-yl)-cyclopropanecarboxylic acid] were, in that order, less than 0.3 µM and greater than 10 µM.
The like results for `Cc1noc(-c2ccc(-c3ccc(C4(C(=O)O)CC4)cc3)cc2)c1NC(=O)O[C@H](C)c1ccccc1C(F)(F)F` [Compound 9, 1-(4′-{3-Methyl-4-[(R)-1-(2-trifluoromethyl-phenyl)-ethoxycarbonylamino]-isoxazol-5-yl}-biphenyl-4-yl)-cyclopropanecarboxylic acid] were, in that order, less than 0.3 µM and 1 to 10 µM.
In the case of `Cc1noc(-c2ccc(-c3ccc(C4(C(=O)O)CC4)cc3)cc2)c1NC(=O)O[C@@H](C)C1CC1` (single isomer, unassigned) [Compound 5], the IC50 in assay [1] was 1 to 10 µM.
On to `Cc1noc(-c2ccc(-c3ccc(C4(C(=O)O)CC4)cc3)cc2)c1NC(=O)O[C@H](C)c1cc(Br)cc(Br)c1` [Compound 32, 1-(4′-{4-[(R)-1-(3,5-Dibromo-phenyl)-ethoxycarbonylamino]-3-methyl-isoxazol-5-yl}-biphenyl-4-yl)-cyclopropanecarboxylic acid], for which the figures for the IC50 in assay [1] and in assay [2] were less than 0.3 µM and 1 to 10 µM, respectively.
The like results for `Cc1noc(-c2ccc(-c3ccc(C4(C(=O)O)CC4)cc3)cc2)c1NC(=O)O[C@@H](C)c1ccccc1` [Compound 27, 1-{4′-[3-Methyl-4-((S)-1-phenyl-ethoxycarbonylamino)-isoxazol-5-yl]-biphenyl-4-yl}-cyclopropanecarboxylic acid] were, in that order, less than 0.3 µM and greater than 10 µM.
As to `Cc1noc(-c2ccc(-c3ccc(C4(C(=O)O)CC4)cc3)cc2)c1NC(=O)O[C@H](C)c1cccc(C(F)(F)F)c1` [Compound 22, 1-(4′-{3-Methyl-4-[(R)-1-(3-trifluoromethyl-phenyl)-ethoxycarbonylamino]-isoxazol-5-yl}-biphenyl-4-yl)-cyclopropanecarboxylic acid], the IC50 in assay [1] and in assay [2] was less than 0.3 µM in each case.
`Cc1noc(-c2ccc(-c3ccc(C4(C(=O)O)CC4)cc3)cc2)c1NC(=O)OC(C)c1ccc(C(F)(F)F)cc1` (single isomer, unassigned) [Compound 13, 1-(4′-{3-Methyl-4-[1-(4-trifluoromethyl-phenyl)-ethoxycarbonylamino]-isoxazol-5-yl}-biphenyl-4-yl)-cyclopropanecarboxylic acid]: in assay [1], the IC50 lay in the range of 1 to 10 µM.
`COc1ccccc1C(C)OC(=O)Nc1c(C)noc1-c1ccc(-c2ccc(C3(C(=O)O)CC3)cc2)cc1` (stereo not drawn) [Compound 12, 1-(4′-{4-[1-(2-Methoxy-phenyl)-ethoxycarbonylamino]-3-methyl-isoxazol-5-yl}-biphenyl-4-yl)-cyclopropanecarboxylic acid]: in assay [1], the IC50 is less than 0.3 µM.

Source of the values: US8273780B2, “Polycyclic antagonists of lysophosphatidic acid receptors” (Amira Pharmaceuticals, Inc., priority 2009, dated 2012).
